In US11980621B2, “Gonadotropin-releasing hormone antagonist dosing regimens for the treatment of endometriosis” (ObsEva S.A., priority 2017, dated 2024):

Experiments:
[1] = system: human female patients having endometriosis; assay: 12-week oral treatment of endometriosis patients grouped by initial serum AMH; serum E2 concentration; format: in vivo
Method: In order to investigate the effects of GnRH antagonists, such as compound (I), (II), and pharmaceutically acceptable salts thereof, such as the choline salt thereof (compound (III)), on endometriosis patients presenting with distinct initial values of serum AMH, a series of experiments was conducted in which patients were divided into multiple treatment arms and orally administered either compound (III) or a placebo. Specifically, a series of n=327 human female patients having endometriosis were divided into five groups, and received either placebo, 50 mg/day of compound (III), 75 mg/day of compound (III), 100 mg/day of compound (III), or 200 mg/day of compound (III) by oral delivery. Treatment with the placebo or compound (III) at the doses specified above occurred continuously over a period of 12 weeks. At various time points throughout these experiments, patients were evaluated for their serum E2 concentration. As described herein, an objective of endometriosis therapy utilizing a GnRH antagonist is to suppress serum E2 values to within a range of from about 20 pg/ml to about 50 pg/ml or lower. Alleviation of endometriosis symptoms correlates with a reduction of serum E2, and achieving serum E2 levels that are either within this range or below are indicators of successful endometriosis treatment. To analyze the response of patients presenting with different initial AMH serum concentrations, patients were further divided into groups based on initial AMH serum level. These groups included patients having initial AMH serum concentrations of less than 15 pM, from 15 pM to 35 pM, or greater than 35 pM prior to commencing treatment with the GnRH antagonist.

human GnRH receptor = molecular target: T1, human GnRH receptor (Homo sapiens, UniProt P30968); assay: affinity for human GnRH receptor; format: binding; settings: type of constant (Ki/IC50/Kd) not stated
T1 sequence (P30968 1-328): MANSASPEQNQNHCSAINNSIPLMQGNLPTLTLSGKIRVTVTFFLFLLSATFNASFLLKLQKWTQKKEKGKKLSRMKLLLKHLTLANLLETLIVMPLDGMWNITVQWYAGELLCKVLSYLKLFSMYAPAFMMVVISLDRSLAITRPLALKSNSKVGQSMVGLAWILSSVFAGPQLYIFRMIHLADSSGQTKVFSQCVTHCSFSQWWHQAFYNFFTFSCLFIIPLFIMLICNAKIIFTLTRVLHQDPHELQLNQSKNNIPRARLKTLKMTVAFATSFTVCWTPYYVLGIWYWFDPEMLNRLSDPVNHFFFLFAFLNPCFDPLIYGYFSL

[2] = system: various animal models of endometriosis; assay: animal models of endometriosis; format: in vivo
Japanese women = assay: daily dosing in Japanese women (LH, E2, endometriosis-associated pain, safety); format: in vivo, human; settings: doses between 50 and 200 mg daily

| SMILES | serum E2 concentration ([1]; 50 mg/day, 12-week treatment period, initial AMH serum concentration less than 15 pM (FIG. 1)) | suppression of serum E2 concentration ([1]; higher dosages, such as 100 mg/day and 200 mg/day, patients with higher initial serum AMH levels (FIG. 3)) | serum E2 ([1]; various daily doses, oral, 12 weeks, initial serum AMH from 15 pM to 35 pM (FIG. 2)) | serum E2 ([1]; various daily doses, oral, 12 weeks, initial serum AMH greater than 35 pM (FIG. 3)) | serum β17-estradiol (E2) ([1]; various daily doses, oral, 12 weeks, initial serum AMH less than 15 pM (FIG. 1)) | affinity for human GnRH receptor (human GnRH receptor) [nM] | E2 secretion [2] | serum LH concentration [2] | size of endometriotic lesions [2] | endometriosis-associated pain (Japanese women) | luteinizing hormone (LH) (Japanese women) | safety and tolerability profile (Japanese women) | β17-estradiol (E2) (Japanese women) |
| --- | --- | --- | --- | --- | --- | --- | --- | --- | --- | --- | --- | --- | --- |
| COc1cc(F)c(-n2c(=O)[nH]c3csc(C(=O)O)c3c2=O)cc1OCc1c(OC)ccc(F)c1F [compound (III), choline 3-[2-fluoro-5-(2,3-difluoro-6-methoxybenzyloxy)4-methoxyphenyl]-2,4-dioxo-1,2,3,4-tetrahydrothieno[3,4d]pyrimidine-5-carboxylate] | achieve a reduction in serum E2 concentration | generally required for suppression of serum E2 concentration | dose-dependent suppression | dose-dependent suppression | dose-dependent suppression |  |  |  |  |  |  |  |  |
| COc1cc(F)c(-n2c(=O)[nH]c3csc(C(=O)O)c3c2=O)cc1OCc1c(OC)ccc(F)c1F [Compound (II), 3-[2-fluoro-5-(2,3-difluoro-6-methoxybenzyloxy)4-methoxyphenyl]-2,4-dioxo-1,2,3,4-tetrahydrothieno[3,4d]pyrimidine-5-carboxylic acid] |  |  |  |  |  | 27.4 | significantly suppressing | significantly suppressing | significantly suppressing | significantly reduce | suppress | good safety and tolerability profile | suppress |
